# Reference: patent publication US20260083865A1, “PROSTATE SPECIFIC MEMBRANE ANTIGEN (PSMA) LIGANDS AND USE THEREOF” (priority 2022, published 2026)
# Like-named read-outs stand apart in the source and are kept apart here. Numbered stars: 1 amine (or outer) side, 2 acyl side, 3 side chain; on linkers, the order of the positions; unused ones are H or OH. Bridge positions count the residues as written; N and C are the ends. Square brackets hold non-standard residues; d marks the D form. Peptide text beside a SMILES is read from it. * marks the point of attachment. DOTA = O=C(O)CN1CCN(CC(=O)O)CCN(CC(=O)*)CCN(CC(=O)O)CC1; X13 = C/N=C(/NC)N(C)CCC[C@H](N[*:1])C(=O)[*:2]; Tyr(3-I) = N[C@@H](Cc1ccc(O)c(I)c1)C(=O)O; Phe(4-CN) = N#Cc1ccc(C[C@H](N)C(=O)O)cc1; Phe(4-Cl) = N[C@@H](Cc1ccc(Cl)cc1)C(=O)O; Arg(Me) = CNC(=N)NCCC[C@H](N)C(=O)O; Ethylenediamine = C(CN[*:2])N[*:1]; X1 = O=C(CC1CCN([*:1])CC1)[*:2]; Cit = NC(=O)NCCC[C@H](N)C(=O)O; Lys(Me) = CNCCCC[C@H](N)C(=O)O; Tle = CC(C)(C)[C@H](N)C(=O)O; Nle = CCCC[C@H](N)C(=O)O; Aib = CC(C)(N)C(=O)O; X8 = O=C(CC1CCNCC1)*
# Tests used:
# [1] = molecular target: T1, PSMA-expressing C4-2 cells (Homo sapiens, UniProt Q04609); test: FACS binding assay (competition with 50 nM PSM-0183); conditions: read-out: pIC50 [C4-2] CAT (converted)
# T1 construct: PSMA-expressing C4-2 cells (ATCC, Cat. No. CRL-3314) were cultured in RPMI-1640; host or cells: C4-2 cells
# T1 sequence (Q04609 whole entry): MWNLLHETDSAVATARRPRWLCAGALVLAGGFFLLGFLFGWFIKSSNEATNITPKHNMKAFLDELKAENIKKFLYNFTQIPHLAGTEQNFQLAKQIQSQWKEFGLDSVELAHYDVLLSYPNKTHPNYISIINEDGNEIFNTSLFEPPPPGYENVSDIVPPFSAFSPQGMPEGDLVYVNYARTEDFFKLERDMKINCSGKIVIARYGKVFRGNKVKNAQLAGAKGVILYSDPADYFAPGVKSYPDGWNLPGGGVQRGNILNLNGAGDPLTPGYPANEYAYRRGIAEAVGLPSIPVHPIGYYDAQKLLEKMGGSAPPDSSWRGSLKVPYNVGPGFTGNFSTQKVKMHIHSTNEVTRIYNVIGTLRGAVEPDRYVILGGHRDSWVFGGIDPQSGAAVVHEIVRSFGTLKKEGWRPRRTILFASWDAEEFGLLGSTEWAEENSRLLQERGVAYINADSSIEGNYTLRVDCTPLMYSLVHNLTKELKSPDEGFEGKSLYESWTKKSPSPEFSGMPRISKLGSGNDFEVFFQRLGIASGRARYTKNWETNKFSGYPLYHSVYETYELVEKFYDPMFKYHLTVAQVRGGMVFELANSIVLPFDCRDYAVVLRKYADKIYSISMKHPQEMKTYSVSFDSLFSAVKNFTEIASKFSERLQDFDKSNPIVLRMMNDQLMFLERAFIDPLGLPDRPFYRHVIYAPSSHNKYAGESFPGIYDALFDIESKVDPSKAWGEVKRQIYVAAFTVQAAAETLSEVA
# Procedure, shortened: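 C4-2 cells were incubated 1 h at 4 °C with 50 nM AF488-labelled peptide PSM-0183 plus increasing test compound concentrations, then washed twice in ice-cold buffer. Median fluorescence in the AF488 channel was read by flow cytometry. IC50/pIC50 was derived by 4PL fitting of MFI versus concentration.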
# [2] = molecular target: T2, Fc-fusion protein of human PSMA (hPSMA-Fc) (Homo sapiens, UniProt Q04609); test: Surface plasmon resonance assay (Biacore T200, single cycle kinetic); assay type: binding; conditions: hPSMA-Fc, 25° C., read-out: pKD CAT (converted)
# T2 construct: purchased Acro Biosystems PSA-H5264
# T2 sequence (Q04609 44-750 limits assumed): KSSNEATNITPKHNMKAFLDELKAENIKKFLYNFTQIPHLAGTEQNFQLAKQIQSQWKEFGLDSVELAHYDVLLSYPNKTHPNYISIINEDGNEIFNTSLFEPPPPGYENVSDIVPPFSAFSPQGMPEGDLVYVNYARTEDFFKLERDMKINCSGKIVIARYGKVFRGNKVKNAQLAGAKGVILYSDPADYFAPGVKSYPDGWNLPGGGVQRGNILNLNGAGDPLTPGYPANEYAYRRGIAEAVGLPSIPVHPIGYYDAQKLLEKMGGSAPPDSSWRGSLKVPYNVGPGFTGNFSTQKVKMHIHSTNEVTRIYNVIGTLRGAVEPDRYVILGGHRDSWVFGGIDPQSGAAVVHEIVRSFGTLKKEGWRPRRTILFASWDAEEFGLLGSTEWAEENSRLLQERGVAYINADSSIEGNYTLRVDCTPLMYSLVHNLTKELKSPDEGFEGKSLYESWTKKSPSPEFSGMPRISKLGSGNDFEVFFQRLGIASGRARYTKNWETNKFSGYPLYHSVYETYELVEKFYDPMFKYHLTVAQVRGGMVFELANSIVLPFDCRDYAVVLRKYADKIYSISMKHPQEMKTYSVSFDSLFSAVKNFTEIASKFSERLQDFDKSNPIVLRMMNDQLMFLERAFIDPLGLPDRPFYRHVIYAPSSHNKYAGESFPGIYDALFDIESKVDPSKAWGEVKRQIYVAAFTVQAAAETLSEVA
# Procedure, shortened: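 hPSMA-Fc was captured (~1000 RU) on an Fc-binding-peptide CM5 chip, and compounds were run in single cycle kinetic mode at 25° C in HBST with 0.1% DMSO. Double-blank-corrected sensorgrams were fitted to a 1:1 Langmuir model to give KD, reported as pKD.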
# [3] = pIC50 category of FACS binding, C4-2 cells
# [4] = pKD category for PSMA SPR activity assay
# [5] = FACS binding, PSMA-expressing C4-2 cells, pIC50 category
"IC50 [1, 5]","Kd ([2]; PSMA SPR assay, pKD category)",Structure (SMILES),further results
,,"CNCCCC[C@@H]1NC(=O)[C@@H](NC(=O)[C@H](Cc2ccc(Cl)cc2)NC(=O)C(C)(C)NC(C)=O)CSSC[C@@H](C(=O)N[C@H](C(=O)NCCNC(=O)CN2CCN(CC(=O)O)CCN(CC(=O)O)CCN(CC(=O)O)CC2)C(C)(C)C)NC(=O)[C@H](CC(N)=O)NC(=O)C(C)(C)NC(=O)[C@H](CCCNC(=N)N)NC1=O [PSM-0472, Ac-Aib-Pcf-[Cys-Lys(Me)-Arg-Aib-Asn-Cys]-Tle-en-DOTA] (Ac-[Aib][Phe(4-Cl)]C[Lys(Me)]R[Aib]NC[Tle]-{Ethylenediamine-DOTA}; disulfide 3-8)","IC50 [1, 3]: < 200 nM; Kd [2, 4]: < 12.6 nM"
< 200 nM,12.6 to 126 nM,"CCCC[C@H](NC(=O)[C@@H]1CSSC[C@H](NC(=O)[C@H](Cc2ccccc2)NC(=O)[C@H](C)NC(=O)[C@@H](NC(C)=O)[C@@H](C)O)C(=O)N[C@@H](CCCCN)C(=O)N[C@@H](CCCNC(=N)N)C(=O)N[C@@H](C)C(=O)N[C@@H](CC(N)=O)C(=O)N1)C(=O)N[C@H](C(=O)N[C@@H](CC(=O)O)C(N)=O)[C@@H](C)O [PSM-0287, Ac-Thr-Ala-Phe-[Cys-Lys-Arg-Ala-Asn-Cys]-Nle-Thr-Asp-NH2]",
200 to 1260 nM,< 12.6 nM,"C/N=C(/NC)N(C)CCC[C@@H]1NC(=O)[C@H](CCCCNC)NC(=O)[C@@H](NC(=O)[C@H](Cc2ccc(Cl)cc2)NC(=O)C(C)(C)NC(=O)[C@@H](NC(=O)CC2CCN(C(=O)CN3CCN(CC(=O)O)CCN(CC(=O)O)CCN(CC(=O)O)CC3)CC2)[C@@H](C)O)CSSC[C@@H](C(=O)N[C@H](C(=O)N[C@H](C(N)=O)[C@@H](C)O)C(C)(C)C)NC(=O)[C@H](CC(N)=O)NC(=O)C(C)(C)NC1=O [PSM-0355, DOTA-Cmp-Thr-Aib-Pcf-[Cys-Lys(Me)-RMe3-Aib-Asn-Cys]-Tle-Thr-NH2] ({DOTA}-[X1]T[Aib][Phe(4-Cl)]C[Lys(Me)][X13][Aib]NC[Tle]T-NH2; disulfide 5-10)",
< 200 nM,< 12.6 nM,"CC(=O)N[C@H](C(=O)NC(C)(C)C(=O)N[C@@H](Cc1ccc(C#N)cc1)C(=O)N[C@H]1CSSC[C@@H](C(=O)N[C@H](C(=O)N[C@H](C(N)=O)[C@@H](C)O)C(C)(C)C)NC(=O)[C@H](CC(N)=O)NC(=O)C(C)(C)NC(=O)[C@H](CCCNC(=N)N)NC(=O)[C@H](CCCCN)NC1=O)[C@@H](C)O [PSM-0278, Ac-Thr-Aib-Pnf-[Cys-Lys-Arg-Aib-Asn-Cys]-Tle-Thr-NH2] (Ac-T[Aib][Phe(4-CN)]CKR[Aib]NC[Tle]T-NH2; disulfide 4-9)",
< 200 nM,< 12.6 nM,"CC(=O)N[C@H](C(=O)NC(C)(C)C(=O)N[C@@H](Cc1ccc(Cl)cc1)C(=O)N[C@H]1CSSC[C@@H](C(=O)N[C@H](C(=O)N[C@H](C(N)=O)[C@@H](C)O)C(C)(C)C)NC(=O)[C@H](CO)NC(=O)C(C)(C)NC(=O)[C@H](CCCNC(N)=O)NC(=O)[C@H](CCCCN)NC1=O)[C@@H](C)O [PSM-0293, Ac-Thr-Aib-Pcf-[Cys-Lys-Cit-Aib-Ser-Cys]-Tle-Thr-NH2] (Ac-T[Aib][Phe(4-Cl)]CK[Cit][Aib]SC[Tle]T-NH2; disulfide 4-9)",
,,"CNCCCC[C@@H]1NC(=O)[C@@H](NC(=O)[C@H](Cc2ccc(O)c(I)c2)NC(=O)C(C)(C)NC(=O)[C@@H](NC(=O)CC2CCNCC2)[C@@H](C)O)CSSC[C@@H](C(=O)N[C@H](C(=O)N[C@H](C(N)=O)[C@@H](C)O)C(C)(C)C)NC(=O)[C@H](CC(N)=O)NC(=O)C(C)(C)NC(=O)[C@H](CCCNC(=N)NC)NC1=O [PSM-0192, H-Cmp-Thr-Aib-Miy-[Cys-Lys(Me)-Arg(Me)-Aib-Asn-Cys]-Tle-Thr-NH2] (X8-T[Aib][Tyr(3-I)]C[Lys(Me)][Arg(Me)][Aib]NC[Tle]T-NH2; disulfide 4-9)","IC50 ([1]; FACS binding, C4-2 cells, competition with 50 nM PSM-0183, category): > 3160 nM; Kd ([2]; SPR, single cycle kinetic, category): > 501 nM"
,,"CCCC[C@H](NC(=O)[C@@H]1CSSC[C@H](NC(=O)[C@H](Cc2ccccc2)NC(=O)[C@H](C)NC(=O)[C@@H](NC(C)=O)[C@@H](C)O)C(=O)N2CCC[C@H]2C(=O)N[C@@H](CCCNC(=N)N)C(=O)N[C@@H](C)C(=O)N[C@@H](CC(N)=O)C(=O)N1)C(=O)N[C@H](C(=O)N[C@@H](CC(=O)O)C(N)=O)[C@@H](C)O [PSM-0544, Ac-Thr-Als-Phe-[Cys-Pro-Arg-Ala-Asn-Cys]-Nle-Thr-Asp-NH2] (Ac-TAFCPRANC[Nle]TD-NH2; disulfide 4-9)","IC50 [1, 3]: > 3160 nM; Kd [2, 4]: > 501 nM"
